The source made the active and inactive calls.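 The calls were made as follows: active = fitted curve reaching 40% activation at or below the top valid dose tested; inconclusive = flat curve at 30 to 70% activation, or poor fit; inactive = the rest.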
What follows are molecules tested on SK-MEL-5 TRPM1 promoter luciferase reporter, 24 h (assay: MITF activators via TRPM1 promoter reporter, dose response, SK-MEL-5 cells, luciferase, cherry-pick samples (AID 540258);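 also: potency for activators that raise TRPM1 promoter luciferase signal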).
CN(c1ccccc1)c1nc2ccsc2c(=O)s1 showed an AC40 of 5.15 µM.
Molecule Cc1ccc(CSc2ccc(-c3cccs3)nn2)cc1 has an AC40 of 2.71 µM.
Molecule c1ccc(-n2ncc3c(NCc4cccs4)ncnc32)cc1 has an AC40 of 2.66 µM.
In the case of O=C(Nc1ccccc1)N1CCC(c2ccccc2)C1 (stereo not drawn), the AC40 was 1.8 µM.
Molecule Clc1ccccc1/C=C/c1nc(-c2cccnc2)no1 has an AC40 of 1.2 µM.
Cc1ccc(C(=O)Oc2cccc(-n3cnnn3)c2)cc1 gave an AC40 of 4.7 µM.
Cn1cccc1C(=O)C(=O)Nc1ccc(F)c(F)c1 showed an AC40 of 0.855 µM.
For Cn1ccs/c1=N\C(=O)Nc1ccccc1, the AC40 was 1.59 µM.
Cc1ccc(NC(=O)Nc2ccc3oc(C)nc3c2)cc1 was tested, and the AC40 was 1.39 µM.
Work on COC(=O)c1cn(CC(=O)NCc2cccs2)c2ccccc12 yielded an AC40 of 9.32 µM.
With COc1cc(O)c2c(=O)cc(-c3ccccc3)oc2c1 the AC40 was 14.2 µM.
For COc1ccc2c(c1)CCc1c(C(=O)NCC(C)C)noc1-2, the AC40 was 0.867 µM.
O=C(NCCc1ccccc1)c1nccc2ccccc12 showed an AC40 of 19.2 µM.
In the case of COc1cccc(NC(=O)c2csc3c2CCCC3)c1, the AC40 was 4.8 µM.
In the case of CN(C)C(CNC(=O)c1cc2ccccc2oc1=O)c1ccccc1 (stereo not drawn), the AC40 was 5.72 µM.
With c1ccc2oc(-c3ccc4nc[nH]c4c3)nc2c1 the AC40 was 0.866 µM.
CSCc1ccc(C(=O)Nc2cc(C)cc(C)c2)cc1 gave an AC40 of 2.81 µM.
CCCC(=O)c1ccc(N2CCCCCC2)c(F)c1 showed an AC40 of 3.36 µM.
With CCC(C)NC(=O)c1cn(-c2cccc(C)n2)cn1 (stereo not drawn) the AC40 was 10.6 µM.
With FC(F)Oc1ccc(N=C2SCC3CCCCN23)cc1 (stereo not drawn) the AC40 was 2.53 µM.
CN(C)c1ccc(/C=C/c2cccc[n+]2[O-])cc1 gave an AC40 of 14.3 µM.
Work on CCNc1nc(N)nc(Oc2ccc(C(=O)OC)cc2)n1 yielded an AC40 of 3.64 µM.
c1ccc(CCn2nnc3ccccc32)cc1 was tested, and the AC40 was 0.867 µM.
With Brc1csc(/C=N/Nc2nc3ccccc3s2)c1 the AC40 was 0.667 µM.
Molecule Cc1ccc(-c2nn(-c3ccccc3)cc2/C=N/O)cc1 has an AC40 of 10.2 µM.
With CC(C)(C)C(=O)OCc1nc(-c2ccc(F)cc2)cs1 the AC40 was 11.3 µM.
Work on COC(=O)c1c(-c2ccc(S(C)(=O)=O)cc2)sc2ccc(OC)cc12 yielded an AC40 of 2.76 µM.
CCCCNC(=O)c1cc2ccccc2s1 was tested, and the AC40 was 31 µM.
Work on Cc1ccc(S(=O)(=O)Nc2cccc(-c3ccc(N4CCCCCC4)nn3)c2)cc1 yielded an AC40 of 4.9 µM.
For N/C(=N\OC(=O)c1ccc2c(c1)OCO2)c1ccc(Cl)cc1, the AC40 was 5.31 µM.
With C/C(=N\Nc1ccc(C(=O)O)cc1)c1ccc2c(c1)Nc1ccccc1S2 the AC40 was 12.8 µM.
Molecule COc1cccc(Nc2nc(-c3ccc(O)cc3)cs2)c1 has an AC40 of 3.18 µM.
O=c1c(-c2ccc(O)cc2)coc2cc(O)cc(O)c12 showed an AC40 of 4.48 µM.
Molecule COc1ccc(C2=NN(c3ccccc3)C(c3ccc(OC)c(OC)c3)C2)cc1 (stereo not drawn) has an AC40 of 25.6 µM.
c1ccc2c(c1)CC/C2=N/Nc1nc2ccccc2[nH]1 was tested, and the AC40 was 0.86 µM.
Work on COC(=O)C1CCCCN1C(=O)c1ccc2oc(Cc3ccccc3)nc2c1 (stereo not drawn) yielded an AC40 of 3.18 µM.
For Cc1cccc(Nc2nc3c(s2)CCCC3)c1, the AC40 was 0.993 µM.
In the case of CC(C)(C)C(=O)c1cnc(Nc2ccccc2Cl)s1, the AC40 was 0.832 µM.
For CC(C)c1ccc(N=C2NN=C(c3cccs3)CS2)cc1, the AC40 was 0.547 µM.
In the case of O=C1c2ccccc2NC(c2cccc(Cl)c2)N1N=C1CCCCCC1 (stereo not drawn), the AC40 was > 35 µM (inactive).
O=C(NCCSc1ccccn1)c1ccc(Cl)cc1Cl gave an AC40 of 0.959 µM.
With Oc1ccc(-c2nccc(-c3ccccn3)n2)cc1 the AC40 was 4.35 µM.
For COc1ccc(NC(=O)CCCn2c(=O)oc3ccccc32)cc1Cl, the AC40 was 3.94 µM.
Molecule COc1cccc(NC(=O)C(=O)NCCC2CCCCN2S(=O)(=O)c2cccs2)c1 (stereo not drawn) has an AC40 of 4.24 µM.
COC(=O)c1ccc(CSC2=NCCS2)cc1 gave an AC40 of 3.38 µM.
Molecule O=C(N/N=C/c1ccccn1)c1c[nH]c2ccccc12 has an AC40 of 6.49 µM.
C(=N\Nc1nc2ccccc2[nH]1)/c1c[nH]c2ccccc12 showed an AC40 of 5.09 µM.
Molecule COC(=O)c1ccc(-c2ccc(Cl)cc2)nc1C has an AC40 of 0.475 µM.
For C1=C(c2cc3ccccc3cn2)CCCC1, the AC40 was 1.08 µM.
In the case of COc1ccccc1Nc1nc(C)cs1, the AC40 was 22.6 µM.
With N#C/C(=N\Nc1ccccc1F)C(=N)N1CCCCC1 the AC40 was 2.13 µM.
CCc1ccc(NC(=O)c2n[nH]c(=O)c3ccccc23)cc1 showed an AC40 of 1.1 µM.
For O=C1c2ccccc2C(=O)N1CCc1c[nH]c2ccccc12, the AC40 was 2.19 µM.
In the case of Fc1ccc2nc(N3CCCC3)sc2c1, the AC40 was 1.37 µM.
For COc1ccccc1NC(=O)Nc1nc2ccc(S(N)(=O)=O)cc2s1, the AC40 was 1.57 µM.
CCN(CC)c1ccc(Nc2nc(-c3cccnc3)cs2)cc1 was tested, and the AC40 was 2.64 µM.
CC(=O)N(c1ccccc1)c1nnc(-c2cnc(C)cn2)s1 was tested, and the AC40 was 1.55 µM.
Molecule Cn1cc(Br)c(C(=O)Nc2sc3c(c2C(N)=O)CCCC3)n1 has an AC40 of 10.4 µM.
Work on Brc1ccccc1-n1nnc(-c2nccs2)n1 yielded an AC40 of 2.52 µM.
Work on Cc1ccc(OC(=O)c2cccc(S(=O)(=O)N3CCCC3)c2)c(-n2nc3ccccc3n2)c1 yielded an AC40 of 1.41 µM.
c1ccc(-n2nnc(-c3cccnc3)n2)cc1 was tested, and the AC40 was 8.4 µM.
Work on O=C(Nc1ccc(Cl)c(Cl)c1)OCc1cccnc1 yielded an AC40 of 7.44 µM.
Molecule COc1ccc(C(=O)NCCn2ccc3ccccc32)cc1 has an AC40 of 1.66 µM.
For COc1ccc(C(=S)Nc2ccc(C)cc2)cc1, the AC40 was 2.65 µM.
Work on CN1CCSc2ccc(C(=O)Nc3cc(F)ccc3F)cc21 yielded an AC40 of 0.465 µM.
Molecule Cc1ccc(N(O)C(=O)NCCCCNC(=O)N(O)c2ccc(C)cc2)cc1 has an AC40 of 15.5 µM.
Molecule c1csc(CSc2nc3ccccc3s2)c1 has an AC40 of 1.09 µM.
With NNC(=O)c1ccc2nc(-c3ccc(Br)cc3)cn2c1 the AC40 was 11.3 µM.
COc1ccc(-c2nnc(SCc3ccccc3)n2N)cc1 showed an AC40 of 5.97 µM.
Molecule O=C(Nc1ccccc1)O/N=C/c1ccc(F)cc1 has an AC40 of 0.883 µM.
C=CCNC(=O)c1ccc2nc(Cc3ccc(OC)cc3)oc2c1 showed an AC40 of 2.37 µM.
CC(C)(C)C(=O)c1sc(Nc2ccccc2)nc1N gave an AC40 of 1.68 µM.
COc1ccccc1N1CCN(C2=Nc3cccc4cccc2c34)CC1 showed an AC40 of 3 µM.
Molecule Nc1ccc(CSc2ccc(Cl)cc2)c(Cl)c1 has an AC40 of 1.98 µM.
O=C(NCCC1=CCCCC1)c1ccc(-n2cncn2)cc1 showed an AC40 of 5.08 µM.
With COC(=O)c1ccc(N=NN2CCCCC2)cc1 the AC40 was 1.34 µM.
For COc1ccc(C(=O)NN/C(=N/S(=O)(=O)c2ccc(C)cc2)c2ccccc2)cc1, the AC40 was 1.48 µM.
Clc1ccc(N/N=C/c2cccnc2)cc1 gave an AC40 of 9.36 µM.
For Cc1ccc(Nc2nnc(-c3ccccc3N)o2)cc1C, the AC40 was 1.59 µM.
For Cn1c2ccccc2c(=O)c2ccc(-c3ccc4c(c3)OCO4)cc21, the AC40 was 0.851 µM.
Molecule CSc1ccccc1OCc1cc(C(=O)N[C@H]2CCCCNC2=O)no1 has an AC40 of 2.22 µM.
Molecule Nc1ccc(O)c2c(=O)cc(-c3ccccc3Cl)oc12 has an AC40 of 1.13 µM.
In the case of COc1ccc(-c2c(C)nc3c(-c4ccsc4)cnn3c2N)cc1, the AC40 was 0.302 µM.
Work on Clc1ccc(-n2nnc(-c3ncc[nH]3)n2)cc1Cl yielded an AC40 of 7.37 µM.
COC(=O)Cc1ccc(NC(=O)c2ccc(C)c(C)c2)cc1 showed an AC40 of 1.49 µM.
c1ccc(CSCc2cn3ccsc3n2)cc1 showed an AC40 of 11.2 µM.
With CCC(=O)N1CCc2nc(-c3ccccc3)sc2C1 the AC40 was 6.73 µM.
Work on O=C(NCc1ccccn1)Nc1ccc(Br)cc1Cl yielded an AC40 of 14.3 µM.
COc1cccc(N(C(=O)c2nc3nccc(C)n3n2)c2nc3ccccc3s2)c1 was tested, and the AC40 was 0.495 µM.
In the case of CCCNC(=O)Nc1nc2ccccc2s1, the AC40 was 0.513 µM.
CCN1CCN(c2cc3c(nn2)Oc2ccccc2N3C)CC1 was tested, and the AC40 was 5.84 µM.
With COc1nc(C)ccc1-c1noc(-c2ccncc2)n1 the AC40 was 2.67 µM.
With COc1cc(/C=C/c2nc3ccccc3c(=O)[nH]2)ccc1OC(F)F the AC40 was 0.98 µM.
In the case of COc1cc(SC)ccc1C(=O)NCC1CCCCC1, the AC40 was 14.4 µM.
Work on Nc1c(-c2ccc(Cl)cc2)cnn1-c1ccccc1 yielded an AC40 of 1.84 µM.
C/C(=C\C(=O)c1cccnc1)Nc1ccc(C)c(C)c1 was tested, and the AC40 was 6.87 µM.
Work on COc1ccc(C(=O)c2ccc(CC#N)s2)cc1 yielded an AC40 of 7.07 µM.
Cc1nc(N)sc1N=Nc1ccc(F)cc1 gave an AC40 of 6.62 µM.
With COc1cc(CNCc2ccccn2)ccc1OCc1ccc(Cl)c(Cl)c1 the AC40 was 9.74 µM.
Oc1ccc(Br)cc1/C=N/N1CCCCC1 was tested, and the AC40 was 1.75 µM.
Oc1ccc(N=Nc2ccccc2)cc1 showed an AC40 of 3.98 µM.
C=CCn1cnc2c(nnn2-c2ccc(C)c(C)c2)c1=O showed an AC40 of 11.9 µM.
COc1ccccc1NC(=O)Nc1ccc(C(=O)N2CCCCC2)cc1 gave an AC40 of 16.6 µM.
For COc1ccc2oc(=O)c(C(=O)N3CCN(c4ccccc4C)CC3)cc2c1, the AC40 was 8.14 µM.
With CCCCn1cnc2sc(-c3ccccc3)cc2c1=O the AC40 was 0.812 µM.
Cc1cc2ncc(-c3ccc(Cl)cc3)c(N)n2n1 was tested, and the AC40 was > 35 µM (inactive).
For CC/C(=N\NC(=O)c1csc(C)c1C)c1cccs1, the AC40 was 0.733 µM.
In the case of CCN(CC)C(=O)OCc1c(-c2ccccc2)ncc2ccccc12, the AC40 was 11.9 µM.
CCc1ccc2[nH]c3nc(C)cc(C)c3c(=O)c2c1 showed an AC40 of 4 µM.
C/C(=C\c1ccc(N)cc1)c1nc2ccccc2[nH]1 showed an AC40 of 1.72 µM.
c1ccc(SCc2nc(-c3ccccn3)no2)cc1 showed an AC40 of 3.01 µM.
CC(=O)Nc1cccc(-c2nc3ccc(NC(C)=O)cc3s2)c1 gave an AC40 of 1.29 µM.
CC(C)(C)c1ccc(C(=O)Nc2ccc(F)cc2)s1 was tested, and the AC40 was 0.374 µM.
O=C(Nc1ccc(F)cc1Cl)c1ccc2c(=O)n3c(nc2c1)CCC3 was tested, and the AC40 was 3.5 µM.
COc1ccc(N=C(C)c2sc3ccccc3c2O)cc1 gave an AC40 of 1.82 µM.
Cc1ccc(NCC(=O)c2ccc(C)cc2)cc1 showed an AC40 of 9.65 µM.
CC(C)Nc1cc(C(C)(C)C)nc2c(-c3ccccc3)cnn12 was tested, and the AC40 was 8.53 µM.
For O=C(Nc1ccccc1)c1ccc(-c2ccccc2)s1, the AC40 was 0.95 µM.
With CCCCSc1nsc(NC(C)=O)n1 the AC40 was 1.28 µM.
With Cc1ccc(O)c(C2=Nc3ccccc3C2(C)C)c1 the AC40 was 8.51 µM.
Cc1ccsc1C(=O)OCc1nnc(-c2ccccc2)o1 was tested, and the AC40 was 7.44 µM.
Molecule COc1ccc(-n2nc(C(=O)NCC(=O)N3CCN(c4ccccc4)CC3)c3ccccc3c2=O)c(OC)c1 has an AC40 of 4.77 µM.
In the case of O=c1oc2cc(Cl)ccc2n1CSc1nc2ccccc2s1, the AC40 was 4.25 µM.
Molecule CCN(CC)c1ccc(-c2nc3cnccc3n2C)cc1 has an AC40 of 1.64 µM.
With C(=C\c1nnc(-c2cccs2)o1)/c1ccccc1 the AC40 was 0.734 µM.
Clc1ccccc1OCc1nnc(-c2ccccc2Br)o1 gave an AC40 of 2.43 µM.
Molecule CCc1ccc(C(=O)N/N=C(\C)c2cccnc2)s1 has an AC40 of 8.9 µM.
With O=C(O)c1ccccc1N/N=C/c1cc(Br)cc(Br)c1O the AC40 was 4.58 µM.
Cc1ccc(NC(=O)CCCc2ccccc2)nc1 gave an AC40 of 5.72 µM.
Cc1cc(C(=O)Cn2nc(C(=O)O)c3ccccc3c2=O)c(C)n1CC(F)(F)F showed an AC40 of 9.43 µM.
For Cc1ccc2cc(NC(=O)c3ccccc3C)ccc2n1, the AC40 was 1.69 µM.
Work on CC(=O)c1ccc(N2Cc3ccccc3C2=NC(=O)c2cccs2)cc1 yielded an AC40 of 24.6 µM.
O=c1nc(/C=C/c2ccc(O)c(O)c2)oc2ccccc12 gave an AC40 of 6.32 µM.
